The text below walks through data of ChEMBL document CHEMBL6134892, “Discovery and Evaluation of DA-302168S as an Efficacious Oral Small-Molecule Glucagon-Like Peptide-1 Receptor Agonist” (J Med Chem, 2025).

In one series the target is hERG (KCNH2) (Homo sapiens, UniProt Q12809). The series can be described thus: Inhibition of human ERG at 30 uM by whole-cell patch clamp technique relative to control. Format: toxicity. For orientation: Patch clamp records ionic current or voltage across a cell membrane.
The target in series [1] is Voltage-gated inwardly rectifying potassium channel KCNH2 (Homo sapiens, UniProt Q12809). Kind of series: Inhibition of human ERG by whole-cell patch clamp technique. Format: toxicity.
For series [2], the target named is Glucagon-like peptide 1 receptor (Homo sapiens, UniProt P43220). Kind of series: Agonist activity at human GLP-1R expressed in HEK293 cells coexpressing CRE LUC incubated for 5 hrs by luciferase based microplate reader analysis. Type of series: functional, cell-based.
In a further series the target is Cytochrome P450 2C9 (Homo sapiens, UniProt P11712). The series can be described thus: Inhibition of CYP2C9 in human liver microsomes incubated for 10 mins in presence of NADPH by LC-MS/MS analysis. Format: ADME, Microsome.
A short description of series [3]: Metabolic stability in human liver microsomes assessed as hepatic clearance at 1 uM measured after 5 to 45 mins in presence of NADPH by LC-MS/MS analysis. Format: ADME, Microsome. As to conditions: time 5-45 min.
The next series concerns the target T1, Cytochrome P450 2C8 (Homo sapiens, UniProt P10632).
T1 sequence (P10632 whole entry): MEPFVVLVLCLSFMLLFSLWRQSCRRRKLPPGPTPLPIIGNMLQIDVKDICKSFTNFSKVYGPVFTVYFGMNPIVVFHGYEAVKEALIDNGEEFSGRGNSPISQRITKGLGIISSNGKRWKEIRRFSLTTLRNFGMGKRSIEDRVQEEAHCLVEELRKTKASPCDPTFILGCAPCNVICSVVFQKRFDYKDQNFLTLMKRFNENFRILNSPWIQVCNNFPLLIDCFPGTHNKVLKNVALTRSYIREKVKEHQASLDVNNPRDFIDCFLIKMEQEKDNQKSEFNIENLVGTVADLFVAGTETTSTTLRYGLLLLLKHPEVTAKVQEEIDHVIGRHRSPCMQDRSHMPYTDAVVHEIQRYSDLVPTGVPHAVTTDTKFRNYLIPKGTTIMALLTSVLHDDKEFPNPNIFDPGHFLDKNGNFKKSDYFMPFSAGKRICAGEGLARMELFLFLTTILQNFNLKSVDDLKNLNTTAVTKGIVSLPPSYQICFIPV
Kind of series: Inhibition of CYP2C8 in human liver microsomes incubated for 20 mins in presence of NADPH by LC-MS/MS analysis. Type of series: ADME, Microsome.

The nature of series [4]: Metabolic stability in human liver microsomes assessed as half life at 1 uM measured after 5 to 45 mins in presence of NADPH by LC-MS/MS analysis. The settings on record: time 5-45 min. Format: ADME, Microsome. On the technique in general: Liver microsomes are vesicles of endoplasmic reticulum, rich in cytochrome P450 enzymes.
Series [5] can be described thus: Metabolic stability in human liver microsomes assessed as intrinsic clearance at 1 uM measured after 5 to 45 mins in presence of NADPH by LC-MS/MS analysis. As to conditions: time 5-45 min, read-out: CLH. Type of series: ADME, Microsome.
The next series addresses T2, Cytochrome P450 1A2 (Homo sapiens, UniProt P05177).
T2 sequence (P05177 whole entry): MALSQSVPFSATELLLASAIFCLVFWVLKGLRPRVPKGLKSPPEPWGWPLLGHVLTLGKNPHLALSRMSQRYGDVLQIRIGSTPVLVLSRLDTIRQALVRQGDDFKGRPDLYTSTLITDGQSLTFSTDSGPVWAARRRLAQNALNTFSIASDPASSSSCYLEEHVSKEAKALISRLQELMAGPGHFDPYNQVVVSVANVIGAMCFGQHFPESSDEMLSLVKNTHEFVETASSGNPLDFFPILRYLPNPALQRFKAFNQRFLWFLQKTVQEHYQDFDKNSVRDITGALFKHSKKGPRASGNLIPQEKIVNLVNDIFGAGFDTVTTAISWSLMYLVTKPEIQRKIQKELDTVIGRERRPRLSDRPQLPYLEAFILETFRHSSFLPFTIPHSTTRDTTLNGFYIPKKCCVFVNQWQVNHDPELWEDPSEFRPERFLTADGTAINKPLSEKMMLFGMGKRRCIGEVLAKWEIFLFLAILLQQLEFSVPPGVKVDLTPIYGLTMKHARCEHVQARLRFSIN
The series can be described thus: Inhibition of CYP1A2 in human liver microsomes incubated for 10 mins in presence of NADPH by LC-MS/MS analysis. Type of series: ADME, Microsome.

The nature of series [6]: AUC last in Sprague-Dawley rat at 10 mg/kg, po measured up to 24 hrs by LC-MS/MS analysis. Format: ADME, organism-based. As to conditions: in vivo.
A further series has as its target Cytochrome P450 2D6 (Homo sapiens, UniProt P10635). Kind of series: Inhibition of CYP2D6 in human liver microsomes incubated for 20 mins in presence of NADPH by LC-MS/MS analysis. Format: ADME, Microsome.
The next series addresses Cytochrome P450 2C19 (Homo sapiens, UniProt P33261). The series can be described thus: Inhibition of CYP2C19 in human liver microsomes incubated for 45 mins in presence of NADPH by LC-MS/MS analysis. Format: ADME, Microsome.
The nature of series [7]: Cmax in Sprague-Dawley rat at 10 mg/kg, po measured up to 24 hrs by LC-MS/MS analysis. Type of series: ADME, organism-based. The settings on record: in vivo.
Another series addresses Cytochrome P450 3A4 (Homo sapiens, UniProt P08684). Kind of series: Inhibition of CYP3A4 in human liver microsomes using testosterone as substrate incubated for 5 mins in presence of NADPH by LC-MS/MS analysis. Format: ADME, Microsome.
The nature of series [8]: Tmax in Sprague-Dawley rat at 10 mg/kg, po measured up to 24 hrs by LC-MS/MS analysis. Format: ADME, organism-based. As to conditions: in vivo.
Another series deals with T3, Cytochrome P450 2B6 (Homo sapiens, UniProt P20813).
T3 sequence (P20813 whole entry): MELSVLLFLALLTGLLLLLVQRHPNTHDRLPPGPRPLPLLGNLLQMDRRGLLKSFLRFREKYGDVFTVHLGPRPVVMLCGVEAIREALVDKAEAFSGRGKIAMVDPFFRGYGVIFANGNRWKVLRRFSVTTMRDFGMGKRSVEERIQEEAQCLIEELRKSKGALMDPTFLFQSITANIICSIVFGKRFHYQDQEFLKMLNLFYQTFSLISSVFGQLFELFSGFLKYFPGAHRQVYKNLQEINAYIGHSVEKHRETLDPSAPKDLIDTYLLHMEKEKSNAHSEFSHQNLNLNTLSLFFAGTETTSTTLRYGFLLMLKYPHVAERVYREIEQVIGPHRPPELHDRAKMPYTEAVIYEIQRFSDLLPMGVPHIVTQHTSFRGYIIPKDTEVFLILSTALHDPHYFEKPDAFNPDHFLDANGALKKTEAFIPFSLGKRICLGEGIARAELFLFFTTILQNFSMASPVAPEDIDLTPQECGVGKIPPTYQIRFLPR
The series can be described thus: Inhibition of CYP2B6 in human liver microsomes incubated for 10 mins in presence of NADPH by LC-MS/MS analysis. Format: ADME, Microsome.

Sequence of Glucagon-like peptide 1 receptor (P43220 whole entry): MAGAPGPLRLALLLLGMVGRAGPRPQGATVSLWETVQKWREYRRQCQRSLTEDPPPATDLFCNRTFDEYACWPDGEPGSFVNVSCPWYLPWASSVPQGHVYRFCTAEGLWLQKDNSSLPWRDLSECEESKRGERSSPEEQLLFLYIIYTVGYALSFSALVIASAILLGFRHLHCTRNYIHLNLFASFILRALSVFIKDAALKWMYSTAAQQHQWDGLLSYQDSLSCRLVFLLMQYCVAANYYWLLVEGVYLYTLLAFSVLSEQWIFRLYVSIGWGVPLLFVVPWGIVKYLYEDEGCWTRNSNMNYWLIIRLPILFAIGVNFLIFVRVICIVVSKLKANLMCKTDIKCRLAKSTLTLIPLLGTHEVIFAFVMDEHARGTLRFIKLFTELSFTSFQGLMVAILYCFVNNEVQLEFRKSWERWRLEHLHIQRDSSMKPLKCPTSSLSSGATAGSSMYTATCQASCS
Sequence of Voltage-gated inwardly rectifying potassium channel KCNH2 (Q12809 whole entry): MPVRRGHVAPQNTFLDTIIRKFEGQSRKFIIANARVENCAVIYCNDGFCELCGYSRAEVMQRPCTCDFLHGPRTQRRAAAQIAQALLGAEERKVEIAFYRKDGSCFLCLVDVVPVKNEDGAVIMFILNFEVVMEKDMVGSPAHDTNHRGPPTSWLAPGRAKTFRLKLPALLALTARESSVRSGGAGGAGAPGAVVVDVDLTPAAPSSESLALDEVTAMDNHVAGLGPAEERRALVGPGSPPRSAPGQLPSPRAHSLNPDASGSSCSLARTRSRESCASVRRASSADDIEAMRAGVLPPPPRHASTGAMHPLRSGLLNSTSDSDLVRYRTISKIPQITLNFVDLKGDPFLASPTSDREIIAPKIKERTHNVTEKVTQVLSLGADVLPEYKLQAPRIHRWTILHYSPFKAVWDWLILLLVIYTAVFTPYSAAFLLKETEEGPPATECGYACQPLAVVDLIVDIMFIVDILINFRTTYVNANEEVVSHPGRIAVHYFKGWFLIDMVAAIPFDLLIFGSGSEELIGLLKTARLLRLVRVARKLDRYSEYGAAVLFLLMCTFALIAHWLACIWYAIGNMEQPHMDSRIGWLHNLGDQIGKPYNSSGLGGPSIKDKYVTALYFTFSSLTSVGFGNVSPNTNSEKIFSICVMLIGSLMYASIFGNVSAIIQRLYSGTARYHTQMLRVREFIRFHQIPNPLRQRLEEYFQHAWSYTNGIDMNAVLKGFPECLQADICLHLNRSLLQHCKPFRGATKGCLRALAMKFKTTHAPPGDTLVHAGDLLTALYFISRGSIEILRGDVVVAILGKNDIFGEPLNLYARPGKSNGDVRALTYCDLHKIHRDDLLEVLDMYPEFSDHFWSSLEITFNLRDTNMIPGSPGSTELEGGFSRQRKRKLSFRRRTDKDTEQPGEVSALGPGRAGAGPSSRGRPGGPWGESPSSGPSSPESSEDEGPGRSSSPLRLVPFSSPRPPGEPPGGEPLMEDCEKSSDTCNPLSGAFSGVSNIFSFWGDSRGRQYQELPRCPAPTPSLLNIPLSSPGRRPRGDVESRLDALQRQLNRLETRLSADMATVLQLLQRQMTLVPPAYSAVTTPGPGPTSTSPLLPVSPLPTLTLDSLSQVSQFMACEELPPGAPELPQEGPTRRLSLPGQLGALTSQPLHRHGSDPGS
Sequence of hERG (KCNH2) (Q12809 whole entry): as above
Sequence of Cytochrome P450 2C9 (P11712 whole entry): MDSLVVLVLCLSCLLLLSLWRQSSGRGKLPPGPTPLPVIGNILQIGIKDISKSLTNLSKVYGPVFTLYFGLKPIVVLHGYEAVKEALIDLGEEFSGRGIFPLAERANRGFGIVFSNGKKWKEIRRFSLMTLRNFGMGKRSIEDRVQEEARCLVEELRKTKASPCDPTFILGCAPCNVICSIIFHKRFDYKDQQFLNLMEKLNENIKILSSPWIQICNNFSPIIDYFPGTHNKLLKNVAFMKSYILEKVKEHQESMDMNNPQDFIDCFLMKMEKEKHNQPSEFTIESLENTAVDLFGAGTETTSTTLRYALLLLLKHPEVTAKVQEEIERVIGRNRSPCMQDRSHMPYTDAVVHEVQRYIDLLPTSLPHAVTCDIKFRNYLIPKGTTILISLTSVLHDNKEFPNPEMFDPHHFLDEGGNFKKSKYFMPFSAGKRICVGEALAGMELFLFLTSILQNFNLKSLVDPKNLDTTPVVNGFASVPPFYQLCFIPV
Sequence of Cytochrome P450 3A4 (P08684 whole entry): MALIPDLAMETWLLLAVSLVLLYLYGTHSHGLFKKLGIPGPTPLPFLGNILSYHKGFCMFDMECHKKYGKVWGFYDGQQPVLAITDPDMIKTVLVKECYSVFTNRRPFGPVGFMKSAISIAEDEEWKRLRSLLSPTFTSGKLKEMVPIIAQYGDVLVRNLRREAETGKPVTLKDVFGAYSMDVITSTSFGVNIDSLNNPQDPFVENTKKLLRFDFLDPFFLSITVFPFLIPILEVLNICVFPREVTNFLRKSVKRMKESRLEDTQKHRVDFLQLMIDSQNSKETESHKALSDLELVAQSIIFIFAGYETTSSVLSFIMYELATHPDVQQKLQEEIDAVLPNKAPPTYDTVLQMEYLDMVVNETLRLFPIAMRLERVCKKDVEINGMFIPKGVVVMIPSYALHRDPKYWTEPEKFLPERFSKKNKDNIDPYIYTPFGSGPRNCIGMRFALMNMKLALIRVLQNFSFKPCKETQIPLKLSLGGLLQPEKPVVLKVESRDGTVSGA
Sequence of Cytochrome P450 2C19 (P33261 whole entry): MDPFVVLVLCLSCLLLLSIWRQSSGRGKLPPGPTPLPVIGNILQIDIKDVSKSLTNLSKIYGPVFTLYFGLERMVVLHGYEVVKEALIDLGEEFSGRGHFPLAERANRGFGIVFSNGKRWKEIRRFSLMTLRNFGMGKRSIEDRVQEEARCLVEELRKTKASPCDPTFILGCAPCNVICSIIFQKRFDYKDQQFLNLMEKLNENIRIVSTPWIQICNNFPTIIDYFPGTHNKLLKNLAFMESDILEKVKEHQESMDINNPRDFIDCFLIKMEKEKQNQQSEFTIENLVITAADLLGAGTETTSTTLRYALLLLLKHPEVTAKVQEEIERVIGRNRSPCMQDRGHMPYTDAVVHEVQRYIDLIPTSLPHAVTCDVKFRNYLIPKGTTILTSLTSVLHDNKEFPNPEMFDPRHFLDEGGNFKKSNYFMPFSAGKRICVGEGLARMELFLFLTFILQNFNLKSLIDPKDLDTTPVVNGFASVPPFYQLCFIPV
Sequence of Cytochrome P450 2D6 (P10635 whole entry): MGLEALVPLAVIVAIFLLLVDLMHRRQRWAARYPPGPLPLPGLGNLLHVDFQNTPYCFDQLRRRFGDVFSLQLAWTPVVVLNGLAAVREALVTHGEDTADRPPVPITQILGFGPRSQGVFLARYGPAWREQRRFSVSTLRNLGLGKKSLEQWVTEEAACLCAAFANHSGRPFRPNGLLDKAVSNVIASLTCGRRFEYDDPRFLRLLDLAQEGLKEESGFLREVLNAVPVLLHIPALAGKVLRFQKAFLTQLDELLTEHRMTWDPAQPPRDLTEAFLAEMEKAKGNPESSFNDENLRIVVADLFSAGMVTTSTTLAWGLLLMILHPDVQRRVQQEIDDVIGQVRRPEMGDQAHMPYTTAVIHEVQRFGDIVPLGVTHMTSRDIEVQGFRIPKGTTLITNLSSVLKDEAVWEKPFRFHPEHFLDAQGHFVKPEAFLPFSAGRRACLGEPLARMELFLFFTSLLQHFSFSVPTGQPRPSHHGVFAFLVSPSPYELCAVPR

By inhibition is commonly meant the relative decrease from the control value, in per cent. Lower therefore signals little suppression. As a reminder, the IC50 is the concentration at which inhibition is half-maximal. Consider `O=C(O)c1ccc2nc(Cc3ccc(-c4cccc(OCc5ccc(Cl)c6ccoc56)n4)cc3F)n(C[C@@H]3CCO3)c2c1`, for which the inhibition at 30 µM at hERG (KCNH2) was under 50%. The IC50 in [1] is over 30 µM.
Broadly, the EC50 is the midpoint of the concentration-response curve. The low end stands for an effect from little substance, the high end for a need for much substance. In the case of `Cn1ccc2ccc(COc3cccc(-c4ccc(Cc5nc6ccc(C(=O)O)cc6n5C[C@@H]5CCO5)c(F)c4)n3)cc21`, the EC50 in [2] came to 0.198 µM. In other words, the sub-micromolar range.
For orientation: half-life means the time in which the quantity being followed falls by half. In general, AUC(0-t) refers to the area under the concentration-time curve up to a stated or last time point. Read a high AUC(0-t) as high exposure. As a reminder, the Cmax is the peak of the concentration-time curve. One may read the Tmax as the time from dosing to the highest level. In the case of `N#Cc1ccc(COc2cccc(C3CCN(Cc4nc5ccc(C(=O)O)cc5n4C[C@@H]4CCO4)CC3)n2)c(F)c1` [DANUGLIPRON], the half-maximal inhibitory concentration (IC50) at Cytochrome P450 2C9 was over 30 µM; on Cytochrome P450 2C8, 3.34 µM; on Cytochrome P450 1A2, over 30 µM; on Cytochrome P450 2D6, over 30 µM; at Cytochrome P450 2C19, over 30 µM; at Cytochrome P450 3A4, over 30 µM. The IC50 on Cytochrome P450 2B6 was over 30 µM. Moreover, the CLhep predicted at 1 µM in [3] was 0.542 L/h/kg. Further, the half-life at 1 µM in series [4] amounted to 1.8 h. The CLint scaled at 1 µM in [5] turned out to be 0.96 L/h/kg. The compound further had an AUC(0-t) at 24 h in series [6] of 0.714 µg·h/mL. The compound also displayed a Cmax in [7] of 0.197 µg/mL. In [8], the Tmax was determined as 0.63 h.
Compound `Cc1cc2c(Cl)ccc(COc3cccc(-c4ccc(Cc5nc6ccc(C(=O)O)cc6n5C[C@@H]5CCO5)c(F)c4)n3)c2o1` returned an EC50 in series [2] of 0.00755 µM.
Turning to `O=C(O)c1ccc2nc(Cc3ccc(-c4cccc(OCc5ccc(Cl)c6cc(Cl)oc56)n4)cc3F)n(C[C@@H]3CCO3)c2c1`, the inhibition at 30 µM against hERG (KCNH2) is under 50%. Further, in series [3], the CLhep predicted at 1 µM is 0.522 L/h/kg. Moreover, in series [4], the half-life at 1 µM was determined as 1.93 h. The CLint scaled at 1 µM in series [5] came to 0.9 L/h/kg. The compound further came in with an IC50 in series [1] of over 30 µM.
With `COCCn1c(Cc2ccc(-c3cccc(OCc4ccc(Cl)c5ccoc45)n3)cc2F)nc2ccc(C(=O)O)cc21`, in series [2], the 50% effective concentration (EC50) came out at 0.359 µM.
Still for that read-out and setting: as for `Cc1cc(-c2cccc(OCc3ccc(C#N)cc3F)n2)ccc1Cc1nc2ccc(C(=O)O)cc2n1C[C@@H]1CCO1`, the figure is 0.0135 µM; as for `N#Cc1ccc(COc2cccc(N3CCC(Cc4nc5ccc(C(=O)O)cc5n4C[C@@H]4CCO4)CC3)n2)c(F)c1`, 0.0855 µM.
On the same count and under the same terms, the figure for `O=C(O)c1ccc2nc(Cc3ccc(-c4cncc(OCc5ccc(Cl)c6ccoc56)n4)cc3F)n(C[C@@H]3CCO3)c2c1` is 0.0709 µM.
